# Key:
# Assay type in all cases: cell-based
# Conditions in all cases: to LPS control
# TNF-α = TNF-α suppression assay
# IL-6 = IL-6 suppression assay
# IL-1β = IL-1β suppression assay
compound,measurement,setting,value
"NS(=O)(=O)c1ccc(-n2nc(C(=O)NN3C(=O)CCC3=O)cc2-c2ccccc2)cc1 [AS-11, N-(2,5-dioxopyrrolidin-1-yl)−5-phenyl-1-(4-sulfamoylphenyl)−1H-pyrazole-3-carboxamide]",TNF-α release percentage inhibition,TNF-α,91%
same,IL-6 release percentage inhibition,IL-6,61%
same,IL-1β release percentage inhibition,IL-1β,75%

# Reference: article PMC12808126 (Scientific Reports, 2025)
